What was measured:
[1] = molecular target: T1, type 1 muscarinic receptor (M1R) (Homo sapiens, UniProt P11229); conditions: cited from earlier work
T1 sequence (P11229 1-460): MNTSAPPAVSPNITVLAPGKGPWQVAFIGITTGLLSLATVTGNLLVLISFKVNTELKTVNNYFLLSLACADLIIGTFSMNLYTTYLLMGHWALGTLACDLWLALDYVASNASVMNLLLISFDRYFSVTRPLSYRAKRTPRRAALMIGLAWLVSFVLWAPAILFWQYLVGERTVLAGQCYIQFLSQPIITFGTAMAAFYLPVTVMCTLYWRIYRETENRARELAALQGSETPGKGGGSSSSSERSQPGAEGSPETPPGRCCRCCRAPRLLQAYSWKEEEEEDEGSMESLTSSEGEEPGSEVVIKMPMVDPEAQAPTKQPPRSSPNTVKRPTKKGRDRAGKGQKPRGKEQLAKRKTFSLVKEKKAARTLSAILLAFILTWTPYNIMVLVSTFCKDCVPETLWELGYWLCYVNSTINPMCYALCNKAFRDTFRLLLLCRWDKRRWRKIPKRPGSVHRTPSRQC

[2] = tested on: adult sensory neuron cultures from STZ-induced diabetic rats; assay: Mitochondrial respiration (OCR) in adult sensory neuron cultures; assay type: cell-based, rat; conditions: 1 μM for 3 h
Method: Mitochondrial respiration in adult mouse sensory neuron cultures from wild type control mice, M1 receptor knockout mice (M1R KO), and from diabetic mice that received dosing with 1 μM of VU0255035 for 3 h, were assessed following the methods taught by Roy Chowdhury et al. (2012). The M1R knockout mice were a gift from Dr. Jurgen Wess (Molecular Signaling Section, Laboratory of Bioorganic Chemistry, National Institute of Diabetes and Digestive and Kidney Diseases, National Institutes of Health).
This bioenergetics parameter, which is depressed in diabetes, is related to the capacity of cells to conduct respiration under conditions of stress or high ATP demand. In this regard we propose the stress is the presence of high intracellular glucose concentrations.

[3] = tested on: AMP-activated protein kinase (AMPK); assay: AMPK phosphorylation (Western blot) in cultured adult sensory neurons; assay type: cell-based, rat; conditions: 1.0 μM, 15-60 min
Method: Subsets of cultured adult sensory neurons derived from age-matched control rats or 3-5 month STZ-induced diabetic rats were treated with a 1.0 μM pirenzepine-HCl dosage. The first subset was processed immediately while the second, third and fourth subsets of the neurons from the control rats and the diabetic rats were processed after 15 min, after 30 min, and after 60 min respectively following treatment with pirenzepine. The cell cultures were lysed and then used to prepare Western blots which were then probed with antibodies against phosphorylated AMPK (P-AMPK), total AMPK (T-AMPK) and total ERK (T-ERK). […] Values are means±SEM, N=3/group. Statistical significance was analyzed using one-way ANOVA with Tukey's post-hoc test.

[4] = tested on: STZ-induced diabetic rats; assay: Motor and sensory nerve conduction velocity in STZ-induced diabetic rats; assay type: in vivo, rat; conditions: 5 mg/kg s.c., 8 weeks; p<0.05 vs vehicle-treated diabetic rats
Method: The STZ rat is a model of type 1 diabetes. Rats were treated with 5 mg/kg (s.c.) pirenzepine for 8 weeks following the method taught by Calcutt et al. (2003, Therapeutic efficacy of sonic hedgehog protein in experimental diabetic neuropathy. J. Clin. Invest. 111:507-514). Nerve conduction velocities (NCV) were determined following the methods taught by Mizisin et al. (2004, Ciliary Neurotrophic Factor Improves Nerve Conduction and Ameliorates Regeneration Deficits in Diabetic Rats. Diabetes 53:1807-12). […] All data are group mean±SEM (N=5-6 group). Statistical analysis by one-way ANOVA with Dunnett's post-hoc test.

[5] = tested on: paclitaxel-treated Swiss Webster mice; assay type: in vivo, mouse; conditions: pirenzepine daily s.c. for 4 weeks (10 mg/kg/day, also printed 1 mg/kg/day)
Method: Swiss Webster mice were treated with paclitaxel (taxol; 5 mg/kg on days 1,3,5 and 7) to induce peripheral neuropathy. […] Data points are group mean of n=9-12/group±SEM. Significant differences were determined with a oneway ANOVA followed by Dunnett's post-hoc test.

[6] = tested on: adult sensory neurons from normal rats; assay: Neurite outgrowth of sensory neurons exposed to paclitaxel or oxaliplatin; assay type: cell-based, rat; conditions: 24 hours, pirenzepine 0.1, 1.0 or 10 μM
Method: Adult sensory neurons from normal rats were cultured for 24 hours in the presence of(A) paclitaxel (PX; 0.1 μM or 0.3 μM), or (B) oxaliplatin (OX; 3.0 μM). From time of plating some cultures were treated with 0.1, 1.0 or 10 μM pirenzepine (PZ). Levels of total neurite outgrowth were determined and presented as means±SEM, N=6-8/group. Significant differences were assessed in(A) by t-test, and in(B) by one-way ANOVA with Dunnett's post-hoc test.

[7] = tested on: cultured adult rat sensory neurons; assay type: cell-based; conditions: 1 μM; gp120 24 hours; P<0.05
Method: To further extend our investigation of the actions of muscarinic receptor antagonists on nerve growth, cultured adult rat sensory neurons were treated for 24 hours with recombinant gp120, an external coat protein of HIV that causes toxicity to sensory neurons in HIV neuropathy (FIG. 24). This toxicity leads to axon degeneration and neuronal cell death. Cultures were treated with 1 μM pirenzpeine and total neurite outgrowth determined. […] Values are means±SEM. n=6.

[8] = tested on: adult sensory neuron cultures derived from STZ-induced diabetic rats; assay: Neurite outgrowth in sensory neuron cultures transduced with dominant negative AMPK mutants; assay type: cell-based, rat; conditions: 1.0 μM pirenzepine; adenovirus dominant negative AMPK mutants AdDN1/AdDN2
Method: Adult sensory neuron cultures derived from STZ-induced diabetic rats were transduced for two days after treatment with 1.0 μM pirenzepine, with two adenovirus over-expressing dominant negative mutants of AMPK, i.e., AMPK subunit α1 and α2 mutants named “AdDN1” and “AdDN2” (the adenovirus over-expressing dominant negative mutants were gifts from Dr. Jason Dyck, University of Alberta) following the procedure taught by Roy Chowdhury et al., (2012).

PGC-1α = PGC-1α transcriptional activity, luciferase reporter in adult sensory neurons; assay type: cell-based, rat; conditions: 1 μM; neurons from STZ-induced diabetic rats
Method: PGC-1α transcriptional activity was determined in dissociated adult sensory neurons derived from STZ-induced diabetic rats by transfection for two days with luciferase-based reporter plasmids by following the methods taught in the AMAXA® NUCLEOFECTOR® II Manual (www.amaxa.com; AMAX and NUCLEOFECTOR are registered trademarks of Amaxa GmBH Corp., Koln, Fed. Rep. Germany) and by Saleh et al. (2013, Ciliary neurotrophic factor activates NF-κB to enhance mitochondrial bioenergetics and prevent neuropathy in sensory neurons of streptozotocin-induced diabetic rodents. Neuropharmacology 65:65-75) (the luciferase-based reporter plasmids were a gift from Dr. Michael Czubryt, University of Manitoba).

[9] = tested on: DCA-treated Swiss Webster mice; conditions: pirenzepine 10 mg/kg/day s.c.
Method: Swiss Webster mice were treated with DCA (1 mg/kg/day s.c.) for 8 weeks to induce peripheral neuropathy following the method described for rats by Calcutt et al. (2009, Peripheral neuropathy in rats exposed to dichloroacetate. J. Neuropath. Exp. Neurol. 68:985-93). Some DCA-treated mice were also treated with pirenzepine (Pz: 10 mg/kg/day s.c.) for the duration of the study while others were treated with vehicle alone.

transcriptional activity of PGC-1α (PGC-1α) | SMILES | selectivity to M1R relative to M2, M3, M4 and M5 receptors [1] | coupling efficiency [2] | oxygen consumption rate (OCR) [2] | respiratory control ratio [2] | spare respiratory capacity ([2]; compared to controls) | P-AMPK level ([3]; cultures from normal (age-matched control) rats) | P-AMPK level ([3]; cultures from type 1 (STZ) diabetic rats) | motor nerve conduction velocity (MNCV) slowing [4] | sensory nerve conduction velocity (SNCV) slowing [4] | tactile allodynia (paw 50% tactile response threshold) [5] | thermal hyperalgesia (paw thermal response latency) [5] | reduced neurite outgrowth caused by oxaliplatin ([6]; oxaliplatin 3.0 μM) | reduced neurite outgrowth caused by paclitaxel ([6]; paclitaxel 0.1 or 0.3 μM) | protection from gp120-induced neurite degeneration [7] | pirenzepine-induced neurite outgrowth under blockage of AMPK signaling [8] | depletion of paw skin IENF ([9]; 8 weeks) | paw thermal hypoalgesia ([9]; 8 weeks) | onset of MNCV slowing ([9]; after 4 weeks of exposure)
 | O=C(CCNS(=O)(=O)c1cccc2nsnc12)N1CCN(c2ccncc2)CC1 [VU0255035] | 75 times | not dissimilar | increased | not dissimilar | significantly increased |  |  |  |  |  |  |  |  |  |  |  |  | 
enhanced | CN1CCN(CC(=O)N2c3ccccc3C(=O)Nc3cccnc32)CC1 [pirenzepine] |  |  |  |  |  | significantly activated | significantly activated | attenuated | attenuated | prevented | prevented | prevented | prevented | complete protection | completely inhibited | prevented | prevented | delayed onset
